In one experiment the test system is Staphylococcus aureus. The experiment in a line: Growth on agar plates containing sodium surfactant. Type of experiment: cell-based.
The subject of a further experiment is Streptococcus bovis. The experiment is described as follows: Growth on agar plates containing sodium surfactant. Type of experiment: cell-based.
The next experiment relates to Streptococcus agalactiae. The experiment is described as follows: Growth on agar plates containing sodium surfactant. Format: cell-based.
The test system of the next experiment is Micrococcus luteus. The experiment in a line: Growth on agar plates containing sodium surfactant. Format: cell-based.
Another experiment relates to Bacillus subtilis. The experiment is described as follows: Growth on agar plates containing sodium surfactant. Format: cell-based.
The next experiment has as its system Enterococcus fecalis. The experiment in a line: Growth on agar plates containing sodium surfactant. Format: cell-based.
Another experiment relates to Streptococcus viridans. The experiment is described as follows: Growth on agar plates containing sodium surfactant. Type of experiment: cell-based.
Experiment [1] has as its system Staphylococcus epidermidis. The experiment is described as follows: Growth on agar plates containing sodium surfactant. Format: cell-based.
In another experiment the test system is Streptococcus pyogenes. The experiment in a line: Growth on agar plates containing sodium surfactant. Format: cell-based.
Another experiment has as its system S. aureus. Format: cell-based, Staphylococcus aureus.
For the next experiment, the system named is Gram-positive bacteria. Format: cell-based.
In another experiment the test system is Streptococcus pneumoniae. Type of experiment: cell-based.
Another experiment deals with Candida tropicalis. Format: cell-based.
A further experiment has as its system Gram-negative bacteria. Type of experiment: cell-based.
For another experiment, the system named is B. subtilis. Type of experiment: cell-based, Bacillus subtilis.

As for `CCCCCCCCCCCCCOC(=O)CC(C(=O)OCCCCCCCCCCCCC)S(=O)(=O)[O-].[Na+]` (stereo not shown) [Compound S6], the “Survival: No Growth/Full Growth” value with Staphylococcus aureus is “+”; with Streptococcus bovis, “−”; in the experiment with Streptococcus agalactiae it was “− and +”; in the experiment with Micrococcus luteus, “+ and −”; in the experiment on Bacillus subtilis it was “− and +”; with Enterococcus fecalis it was “+”. For the same compound, the “Survival: No Growth/Full Growth” value in the experiment with Streptococcus viridans was “+”; in experiment [1] it was “+”; with Streptococcus pyogenes, “−”.
`CCCCC(CC)COC(=O)CC(C(=O)OCC(CC)CCCC)S(=O)(=O)[O-].[Na+]` (stereo not shown) [sodium bis[2-ethylhexyl]sulfosuccinate]: the “Survival: No Growth/Full Growth” value in the experiment on Staphylococcus aureus, in the experiment on Streptococcus bovis, in the experiment on Streptococcus pneumoniae, with Streptococcus agalactiae, in the experiment on Micrococcus luteus and in the experiment on Bacillus subtilis was “−” in each case. The “Survival: No Growth/Full Growth” value (in the experiment with Enterococcus fecalis; in the experiment on Streptococcus viridans; in [1]; with Candida tropicalis; with Streptococcus pyogenes) was “−” each time. The “killing of S. aureus” value in the experiment on S. aureus is reported as “killed all”. The “effect on all Gram-positive bacteria tested” value in the experiment with Gram-positive bacteria is given as “killed”. Also, the “effect on the yeast Candida tropicalis” value in the experiment on Candida tropicalis is on record as “killed”. For the same compound, the “response of Gram-negative bacteria” value with Gram-negative bacteria is listed as “resistant”. Further, the “killing of B. subtilis” value in the experiment on B. subtilis is given as “killed all”.

The values are drawn from patent US8574608B2, “Bactericidal silver surfactant delivery into coating and polymer compositions” (Eastern Michigan Universtity, priority 2007, dated 2013).
